These are literature values, as cited in patent US20040019053A1, “Combination of an allosteric carboxylic inhibitor of matrix metalloproteinase-13 with celecoxib or valdecoxib” (priority 2002, published 2004).

As to `Cc1onc(-c2ccccc2)c1-c1ccc(S(N)(=O)=O)cc1` [valdecoxib, 4-(5-methyl-3-phenyl-4-isoxazolyl)-benzenesulfonamide], the Tolerability result (combined analysis of clinical studies) is “well tolerated”. In addition, where the note is “versus ibuprofen, diclofenac and naproxen”, the “Overall upper gastrointestinal safety profile (ulcers, perforations, obstructions and GI bleeds)” value was “significantly better than the conventional NSAIDs studied”.
